Data: patent US8906866B2, “Antibiotic compositions for the treatment of gram negative infections” (priority 2010, dated 2014)
*1 amine or outer side, *2 acyl side, *3 side chain or, on linkers, in order; H or OH if unused. Where a SMILES comes first, the peptide text is derived from it. Bridges are numbered along the chain shown (N, C = ends). [ ]: non-standard residue; d: D form. The star is where a group is joined. ξ: configuration not given here. Thr(3ξ) = CC(O)[C@H](N)C(=O)O; NH(2-ClPh) = Clc1ccccc1N*; X1 = CC[C@H](C)CCCCC(=O)*; dDab = NCC[C@@H](N)C(=O)O; Dab = NCC[C@H](N)C(=O)O; CO = O=C([*:1])[*:2]; ξDab = NCCC(N)C(=O)O

Tests used:
P. aeruginosa #44 [1] = experiment: MICs for P. aeruginosa #44 in the presence of surfactant; assay type: cell-based, Pseudomonas aeruginosa; set-up: key: A: a MIC value measurement that is the same as that observed for polymyxin B; a MIC value measured that is lower than the comparable value observed for polymxin B; a MIC value measured that is higher than the comparable value observed for polymyxin B; conditions: relative to polymyxin B
Description: (§1) Antibacterial potency can be assessed by broth microdilution according to CLSI guidelines, plates can be incubated at 37° C., and aeration (rotation at 200 rpm) can be employed. In some assays, surfactant (Survanta, Abbott Laboratories) can be added to give a final concentration of 1, 10 and 40% in caMHB. Native polymyxin A, polymyxin B and the comparator compound of Formula II (polymyxin B decapeptide with an o-chlorophenyl urea tail) were included for comparison.

K. pneumoniae = experiment: MIC50/90 against small panels (n = 35); assay type: cell-based, Klebsiella pneumoniae; set-up: key: A: a MIC value measurement that is the same as that observed for polymyxin B; a MIC value measured that is lower than the comparable value observed for polymxin B; a MIC value measured that is higher than the comparable value observed for polymyxin B; conditions: small panel n = 35, relative to polymyxin B
Description: as §1

K. pneu = experiment: MIC50 and MIC90, CLSI broth microdilution, panel of Gram negative strains; assay type: cell-based, Klebsiella pneumoniae; set-up: key: A: a measured MIC value equal to that of polymyxin B; a measured MIC value less than the corresponding MIC value measured for polymyxin B; a measured MIC value greater than the corresponding MIC value measured for polymyxin B; conditions: relative to polymyxin B; some strains multi-drug resistant
Description: (§2) MIC testing can be performed according to Clinical and Laboratory Standards Institute (CLSI) M7-A7 (2006) broth microdilution methods. Unless otherwise indicated, MIC values are provided in units of micrograms per milliliter.
(§3) One day prior to testing, individual colonies were isolated by streaking onto rich, non-selective Tryptic Soy agar with 5% lysed sheeps blood (TSAB) with incubation at 35-37° C. for 18-24 hours.
(§4) Cultures were prepared by touching 3-5 colonies into 3 mL of cation-adjusted Mueller Hinton Broth (caMHB) in a 14-mL tube (caMHB was prepared and sterilized according to manufacturer's specifications).
(§5) OD600 of growing cultures was measured and adjusted to approximately 10^5 colony forming units per mL (CFU/mL) in caMHB for MIC inoculation (approximately OD600 0.001).
(§6) Diluted cultures were used to inoculate 50 μL per well in broth microdilution assays (final volume 100 μl per well; compounds were prepared in two-fold dilutions).
(§7) Plates were incubated 16-20 hours at 37° C., with shaking at 200 rpm.
(§8) OD600 was determined for all wells. Growth was defined as OD600>0.1. MICs were defined as the lowest concentration producing no visible turbidity (OD600<0.1).

P. aeruginosa 44 [2] = experiment: MIC against the primary screening panel (broth microdilution); assay type: cell-based, Pseudomonas aeruginosa; set-up: key: A: a MIC value measurement that is the same as that observed for polymyxin B; a MIC value measured that is lower than the comparable value observed for polymxin B; a MIC value measured that is higher than the comparable value observed for polymyxin B; conditions: relative to polymyxin B
Description: as §1

P. aeruginosa 44 [3] = experiment: Neutropenic mouse lung infection model; assay type: in vivo; conditions: for Lungs cleared within one log10 of limit of detection: 8 through 20 mg/kg dose levels
Description: Compound of Formula (Ia) was tested in a murine thigh model. For the thigh model, female CD-1 mice were rendered neutropenic by IP injection on days −4 and −1 with 150 and 100 mg/kg cyclophosphamide, respectively. On day 0 mice were infected with 1×10^7 colony-forming units (cfu) of A. baumannii 1570 in one thigh muscle, and then administered compound SC in a dose ranging from 2 to 12 mg/kg at 1 and 6 hours post-infection.
The mouse lung model was run in the same manner as the thigh infection model, except that mice were infected IN with 1×10^7 cfu of P. aeruginosa 44 on day 0. Doses administered in the lung study ranged from 8 to 20 mg/kg. The ED−3log10 was based on cfu determination from the lung tissue 24 hours post-infection.

K. pneumoniae 933 = experiment: MIC against the primary screening panel (broth microdilution); assay type: cell-based, Klebsiella pneumoniae; set-up: key: A: a MIC value measurement that is the same as that observed for polymyxin B; a MIC value measured that is lower than the comparable value observed for polymxin B; a MIC value measured that is higher than the comparable value observed for polymyxin B; conditions: relative to polymyxin B
Description: as §1

E. coli [4] = experiment: MIC50 and MIC90, CLSI broth microdilution, panel of Gram negative strains; assay type: cell-based, Escherichia coli; set-up: key: A: a measured MIC value equal to that of polymyxin B; a measured MIC value less than the corresponding MIC value measured for polymyxin B; a measured MIC value greater than the corresponding MIC value measured for polymyxin B; conditions: relative to polymyxin B; some strains multi-drug resistant
Description: as §2, §3, §4, §5, §6, §7, §8

A. baumannii 1570 = experiment: MIC against the primary screening panel (broth microdilution); assay type: cell-based, Acinetobacter baumannii; set-up: key: A: a MIC value measurement that is the same as that observed for polymyxin B; a MIC value measured that is lower than the comparable value observed for polymxin B; a MIC value measured that is higher than the comparable value observed for polymyxin B; conditions: relative to polymyxin B
Description: as §1

A. baumannii = experiment: MIC50/90 against small panels (n = 35); assay type: cell-based, Acinetobacter baumannii; set-up: key: A: a MIC value measurement that is the same as that observed for polymyxin B; a MIC value measured that is lower than the comparable value observed for polymxin B; a MIC value measured that is higher than the comparable value observed for polymyxin B; conditions: small panel n = 35, relative to polymyxin B
Description: as §1

E. coli 1527 = experiment: MIC against the primary screening panel (broth microdilution); assay type: cell-based, Escherichia coli; set-up: key: A: a MIC value measurement that is the same as that observed for polymyxin B; a MIC value measured that is lower than the comparable value observed for polymxin B; a MIC value measured that is higher than the comparable value observed for polymyxin B; conditions: relative to polymyxin B
Description: as §1

P. aeruginosa = experiment: MIC50/90 against small panels (n = 35); assay type: cell-based, Pseudomonas aeruginosa; set-up: key: A: a MIC value measurement that is the same as that observed for polymyxin B; a MIC value measured that is lower than the comparable value observed for polymxin B; a MIC value measured that is higher than the comparable value observed for polymyxin B; conditions: small panel n = 35, relative to polymyxin B
Description: as §1

A. baum = experiment: MIC50 and MIC90, CLSI broth microdilution, panel of Gram negative strains; assay type: cell-based, Acinetobacter baumannii; set-up: key: A: a measured MIC value equal to that of polymyxin B; a measured MIC value less than the corresponding MIC value measured for polymyxin B; a measured MIC value greater than the corresponding MIC value measured for polymyxin B; conditions: relative to polymyxin B; some strains multi-drug resistant
Description: as §2, §3, §4, §5, §6, §7, §8

E. coli [5] = experiment: MIC50/90 against small panels (n = 35); assay type: cell-based, Escherichia coli; set-up: key: A: a MIC value measurement that is the same as that observed for polymyxin B; a MIC value measured that is lower than the comparable value observed for polymxin B; a MIC value measured that is higher than the comparable value observed for polymyxin B; conditions: small panel n = 35, relative to polymyxin B
Description: as §1

P. aeru = experiment: MIC50 and MIC90, CLSI broth microdilution, panel of Gram negative strains; assay type: cell-based, Pseudomonas aeruginosa; set-up: key: A: a measured MIC value equal to that of polymyxin B; a measured MIC value less than the corresponding MIC value measured for polymyxin B; a measured MIC value greater than the corresponding MIC value measured for polymyxin B; conditions: relative to polymyxin B, some strains multi-drug resistant
Description: as §2, §3, §4, §5, §6, §7, §8

[6] = Acute toxicity testing in rats; assay type: in vivo, Sprague-Dawley rat; conditions: 1 mg/kg i.v., female Sprague-Dawley rat
Description: One female Sprague-Dawley rat was administered a 1 mg/kg dose of the test Compound 5. Clinical observations were taken immediately following the administration of compound and at 0.5, 1, 2 and 4 hours post-dose.

P. aeruginosa #44 [7] = experiment: MIC against P. aeruginosa #44 in polystyrene plate; assay type: cell-based, Pseudomonas aeruginosa; conditions: range of repeated tests
Description: P. aeruginosa #44 were grown in cation adjusted Mueller Hinton Broth (caMHB) (catalog#B12322; Fisher Scientific, Pittsburgh, Pa.) at 37° C. MIC testing was performed according to Clinical and Laboratory Standards Institute [CLSI, formerly National Committee for Clinical Laboratory Standards (NCCLS), Wayne, Pa.] guidelines for broth microdilution. […]

Row | Compound | MIC P. aeruginosa #44, 0% surfactant (P. aeruginosa #44 [1]) | MIC P. aeruginosa #44, 10% surfactant (P. aeruginosa #44 [1]) | MIC P. aeruginosa #44, 40% surfactant (P. aeruginosa #44 [1]) | K. pneumoniae MIC50 (K. pneumoniae) | K. pneumoniae MIC90 (K. pneumoniae) | K. pneu MIC 50 (K. pneu) | K. pneu MIC 90 (K. pneu) | MIC P. aeruginosa 44 (P. aeruginosa 44 [2]) | Lungs cleared within one log10 of limit of detection (P. aeruginosa 44 [3]) | MIC K. pneumoniae 933 (K. pneumoniae 933) | E. coli MIC50 (E. coli [4]) | E. coli MIC90 (E. coli [4]) | MIC A. baumannii 1570 (A. baumannii 1570) | A. baumannii MIC50 (A. baumannii) | A. baumannii MIC90 (A. baumannii) | MIC E. coli 1527 (E. coli 1527) | P. aeruginosa MIC50 (P. aeruginosa) | P. aeruginosa MIC90 (P. aeruginosa) | A. baum MIC 50 (A. baum) | A. baum MIC 90 (A. baum) | further results
1 | CC(C)C[C@@H]1NC(=O)[C@@H](Cc2ccccc2)NC(=O)[C@H](CCN)NC(=O)C(NC(=O)[C@H](CCN)NC(=O)[C@@H](NC(=O)[C@H](CCN)NC(=O)Nc2ccccc2Cl)C(C)O)CCNC(=O)[C@H](C(C)O)NC(=O)[C@H](CCN)NC(=O)C(CCN)NC1=O (stereo partly shown) [Formula (II) comparator] ({NH(2-ClPh)-CO}-[Dab][Thr(3ξ)][Dab][ξDab][Dab][dF]L[ξDab][Dab][Thr(3ξ)]; lactam 4-C) | C | B | A | C | C | C | C | C | not seen | C | C | C | C | C | C | C | B | A | C | C | ED−3log10 (P. aeruginosa 44 [3]; historical data): approximately 12 mg/kg; E. coli MIC50 (E. coli [5]): C; E. coli MIC90 (E. coli [5]): C; P. aeru MIC 50 (P. aeru; listed as 2): B and A; P. aeru MIC 90 (P. aeru; listed as 2): A and C
2 | CC[C@H](C)CCCCC(=O)N[C@@H](CCN)C(=O)N[C@H](C(=O)N[C@H](CCN)C(=O)N[C@H]1CCNC(=O)[C@H]([C@@H](C)O)NC(=O)[C@H](CCN)NC(=O)[C@H](CCN)NC(=O)[C@H]([C@@H](C)O)NC(=O)[C@@H](CC(C)C)NC(=O)[C@H](CCN)NC1=O)[C@@H](C)O [Native Polymyxin A, Polymyxin A] (X1-[Dab]T[dDab][Dab][Dab][dL]T[Dab][Dab]T; lactam 4-C) | C | B | B | C | C | C | C | C | not observed | A | B | A | C | A | A | B | A | C | A | A | ED−3log10 (P. aeruginosa 44 [3]; neutropenic mouse lung, P. aeruginosa 44, SC, BID×1 d, cfu 24 hours post-infection): 16.22 mg/kg; Acute (anaphylactoid) observations [6]: no clinical signs were observed; E. coli MIC50 (E. coli [5]): B; E. coli MIC90 (E. coli [5]): A; P. aeru MIC 50 (P. aeru): A; P. aeru MIC 90 (P. aeru): C
3 | Colistin |  |  |  |  |  |  |  |  |  |  |  |  |  |  |  |  |  |  |  |  | MIC against P. aeruginosa #44 In polystyrene plate (P. aeruginosa #44 [7]): 2-4 micrograms/ml
